Literature values, collected in patent US20260256742A1, “ANDROGEN RECEPTOR ANTAGONISTS FOR THE TREATMENT OF PATIENTS WITH BIOCHEMICAL RECURRENCE OF HORMONE SENSITIVE PROSTATE CANCER” (BAYER CONSUMER CARE AG, priority 2023, published 2026).

Columns and labels:
[1] = in vivo; cited from earlier work
[2] = single oral administration; cited from earlier work
nmCRPC = conditions: in combination with ADT, patients with nmCRPC; cited from earlier work
T878A AR mutant = T878A AR mutant (Homo sapiens, UniProt P10275, T878A); conditions: cited from earlier work
Chain of T878A AR mutant (P10275 whole entry T878A): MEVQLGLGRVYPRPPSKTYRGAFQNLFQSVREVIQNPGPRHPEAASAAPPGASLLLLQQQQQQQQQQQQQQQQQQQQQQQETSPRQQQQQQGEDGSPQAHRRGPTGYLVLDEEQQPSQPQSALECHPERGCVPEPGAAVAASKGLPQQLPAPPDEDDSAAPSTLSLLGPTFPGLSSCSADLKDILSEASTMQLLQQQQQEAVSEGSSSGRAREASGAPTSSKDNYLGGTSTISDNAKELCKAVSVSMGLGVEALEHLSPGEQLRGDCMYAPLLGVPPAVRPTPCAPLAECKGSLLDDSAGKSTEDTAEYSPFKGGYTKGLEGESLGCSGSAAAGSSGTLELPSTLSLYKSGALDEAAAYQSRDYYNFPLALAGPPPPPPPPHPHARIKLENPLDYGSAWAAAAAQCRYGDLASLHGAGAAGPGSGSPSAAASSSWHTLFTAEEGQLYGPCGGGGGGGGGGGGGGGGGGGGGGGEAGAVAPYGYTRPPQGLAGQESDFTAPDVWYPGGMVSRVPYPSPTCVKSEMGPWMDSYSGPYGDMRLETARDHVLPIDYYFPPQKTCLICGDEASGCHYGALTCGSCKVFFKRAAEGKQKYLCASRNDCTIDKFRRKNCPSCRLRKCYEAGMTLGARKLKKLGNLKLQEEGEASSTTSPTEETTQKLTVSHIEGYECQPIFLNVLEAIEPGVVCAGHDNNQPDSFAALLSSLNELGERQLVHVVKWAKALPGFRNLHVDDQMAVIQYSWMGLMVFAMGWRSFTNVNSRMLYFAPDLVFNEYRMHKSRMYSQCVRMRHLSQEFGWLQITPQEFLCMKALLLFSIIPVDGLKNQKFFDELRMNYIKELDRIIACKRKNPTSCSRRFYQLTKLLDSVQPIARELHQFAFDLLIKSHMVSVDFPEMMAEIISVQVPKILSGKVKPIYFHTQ

| Structure (SMILES) | metastatic free survival (MFS) (nmCRPC) | overall survival (OS) (nmCRPC) | also measured |
| --- | --- | --- | --- |
| CC(Cn1ccc(-c2ccc(C#N)c(Cl)c2)n1)NC(=O)c1cc(C(C)O)[nH]n1 (single isomer, unassigned) [(S,R) diastereoisomer] | – | – | elimination compared with the other diastereoisomer [1]: faster elimination |
| CC(O)c1cc(C(=O)N[C@@H](C)Cn2ccc(-c3ccc(C#N)c(Cl)c3)n2)[nH]n1 (some centres unmarked) [[^14C]-darolutamide] | – | – | exposure in prostate tissue [2]: higher; tissue distribution [2]: wide and homogenous distribution in all tissues except the brain |
| CNC(=O)c1ccc(N2C(=S)N(c3cnc(C#N)c(C(F)(F)F)c3)C(=O)C23CCC3)cc1F [apalutamide] | significantly increased | significantly increased | – |
| CNC(=O)c1ccc(N2C(=S)N(c3ccc(C#N)c(C(F)(F)F)c3)C(=O)C2(C)C)cc1F [enzalutamide] | significantly increased | significantly increased | – |
| CC(C)(O)C(=O)Nc1ccc([N+](=O)[O-])c(C(F)(F)F)c1 [hydroxyflutamide] | – | – | action in T878A AR mutant (T878A AR mutant): AR agonists |
